Source: US7736636B2, “Method for treating occlusive vascular diseases & wound healing” (priority 2004, dated 2010)
“Also recorded” adds a separate entry of the source. Like-named read-outs stand apart in the source and are kept apart here.

What was measured:
[1] = tested on: CAM of 10-day-old chick embryos; assay: Chorioallantoic membrane (CAM) model of angiogenesis, Table 1; type: in vivo; conditions: for Mean Number of Branch Points ± SD: n = 8, control 76 ± 10
Description: (§1) Chorioallantoic membrane (CAM) Model of Angiogenesis: In vivo Neovascularization was examined by methods described previously. 9-12 Ten-day-old chick embryos were purchased from SPAFAS (Preston, Conn.) and incubated at 37° C. with 55% relative humidity. A hypodermic needle was used to make a small hole in the shell concealing the air sac, and a second hole was made on the broad side of the egg, directly over an avascular portion of the embryonic membrane that was identified by candling. A false air sac was created beneath the second hole by the application of negative pressure at the first hole, causing the CAM to separate from the shell. A window approximately 1.0 cm 2 was cut in the shell over the dropped CAM with a small-crafts grinding wheel (Dremel, division of Emerson Electric Co.), allowing direct access to the underlying CAM. FGF2 (1 μg/mL) was used as a standard proangiogenic agent to induce new blood vessel branches on the CAM of 10-day-old embryos. Sterile disks of No. 1 filter paper (Whatman International) were pretreated with 3 mg/mL cortisone acetate. Nicotine, nicotinic acid analogs, FGF2 or control solvents, and inhibitors were then applied to the disks and the disks allowed to dry. The disks were then suspended in PBS and placed on growing CAMs. Filters treated were placed on the first day of the 3-day incubation, with antibody to FGF2 added 30 minutes later to selected samples as indicated. At 24 hours, the MAPK cascade inhibitor PD 98059 was also added to CAMs topically by means of the filter disks.
(§2) Microscopic Analysis of CAM Sections: After incubation at 37° C. with 55% relative humidity for 3 days, the CAM tissue directly beneath each filter disk was resected from control and treated CAM samples. Tissues were washed 3× with PBS, placed in 35-mm Petri dishes (Nalge Nunc), and examined under an SV6 stereomicroscope (Zeiss) at ×50 magnification. Digital images of CAM sections exposed to filters were collected using a 3-charge-coupled device color video camera system (Toshiba) and analyzed with Image-Pro software (Media Cybernetics). The number of vessel branch points contained in a circular region equal to the area of each filter disk were counted. One image was counted in each CAM preparation, and findings from 8 to 10 CAM preparations were analyzed for each treatment condition (Nicotine, nicotinic acid analogs). The resulting angiogenesis index is the mean±SEM of new branch points in each set.

[2] = tested on: CAM of 10-day-old chick embryos; assay: Nicotine, nicotinic acid and FGF2 alone and combined, branch points (Table 2, titled Release of FGF2 From Endothelial Cells); type: in vivo; conditions: for Average number of branch Points ± SD: n = 16, control 86 ± 14
Description: as §1
as §2, with “One image was counted in each CAM preparation, and findings from 8 to 10 CAM preparations were analyzed for each treatment condition (Nicotine, nicotinic acid analogs).” left out

[3] = tested on: normal human dermal fibroblast cells (NHDF); conditions: in vitro wound healing
Description: Additionally, a 3-dimensional wound healing method already established in our Laboratory will be utilized in this study (see below).
In Vitro 3D Wound Healing Assay of Human Dermal Fibroblast Cells:
Step 1: Prepare Contracted Collagen Gels: • 1) Coat 24-well plate with 350 ul 2% BSA at RT for 2 hr, • 2) 80% confluent NHDF (normal human dermal fibroblast cells, Passage 5-9) are trypsinized and neutralized with growth medium, centrifuge and wash once with PBS • 3) Prepare collagen-cell mixture, mix gently and always on ice:
• 4) Aspire 2% BSA from 24 well plate, add collagen-cell mixture 350 ul/well, and incubate the plate in 37° C. CO2 incubator. • 5) After 1 hr, add DMEM+5% FBS medium 0.5 ml/well, use a 10 ul tip Detach the collagen gel from the edge of each well, then incubate for 2 days. The fibroblast cells will contract the collagen gel
Step 2: Prepare 3D Fibrin Wound Clot and Embed Wounded Collagen Culture • 1) Prepare fibrinogen solution (1 mg/ml) with or without testing regents. 350 ul fibrinogen solution for each well in eppendorf tube.
• 2) Cut each contracted collagen gel from middle with scissors. Wash the gel with PBS and transfer the gel to the center of each well of 24 well plate • 3) Add 1.5 ul of human thrombin (0.25 U/ul) to each tube, mix well and then add the solution around the collagen gel, the solution will polymerize in 10 mins. […]

| Molecule | Mean Number of Branch Points ± SD ([1]; 1.0 μg) | Average number of branch Points ± SD ([2]; 0.5 ug) | Average number of branch Points ± SD ([2]; 1.0 ug) | New blood vessel generation / branch formation in the CAM model (in words) [1] | Mean Number of Branch Points ± SD ([1]; 0.1 μg) | Average number of branch Points ± SD ([2]; 0.05 ug) | Average number of branch Points ± SD ([2]; 0.1 ug) | Pro-angiogenesis effect compared with FGF2 (in words) ([2]; Table 2) | Stimulation of wound healing (in words) [3] | New blood vessel generation / branch formation in the CAM model (in words) ([1]; listed as nicotinic acid) |
| --- | --- | --- | --- | --- | --- | --- | --- | --- | --- | --- |
| FGF2: basic fibroblast growth factor, used as a standard proangiogenic agent | 195 ± 22 | 115 ± 08 | 195 ± 22 |  |  |  |  |  |  |  |
| CN1CCCC1c1cccnc1 (stereo not drawn) [Nicotine] |  |  |  | promoted new blood vessel generation; also recorded: promotes new blood vessel branch formation | 192 ± 11 | 145 ± 10 | 192 ± 11 | comparable pro-angiogenesis effect to that shown with FGF2 | potent stimulation of wound healing |  |
| O=C(O)c1cccnc1 [Nicotinic acid] | 155 ± 16 |  |  | promoted new blood vessel generation |  |  |  |  |  | promotes new blood vessel branch formation |
